From patent publication US9023826B2 (L'Oreal S.A., priority 2012, dated 2015)

Test: Solubility in water, with or without hydrotropes, at room temperature
Assay type: physicochemical

- stability of adenosine/hydrotropes solution in water on further dilution or concentration: stable
- concentration of stable clear solution obtained (5% nicotinamide and 5% caffeine in water): 3 % (w/w)
Compound: Nc1ncnc2c1ncn2[C@@H]1O[C@H](CO)[C@@H](O)[C@H]1O [Adenosine]
